Reference: patent US7495104B2, “Quinoline or quinazoline derivatives inhibiting auto-phosphorylation of fibroblast growth factor receptors” (Kirin Beer Kabushiki Kaisha, priority 2001, dated 2009)

Biological target: Bek (Homo sapiens, UniProt P21802)
Experiment: Inhibitory activity against Bek-autophosphorylation using ELISA method in OCUM-2MD3 cells
Type: cell-based
Conditions: 1 hr with compound, read-out: IC50 (concentration necessary for inhibiting 50% of Bek-phosphorylation)
Outline: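 OCUM-2MD3 human scirrhous gastric cancer cells in 0.1% FCS were exposed to compound for 1 hr at 37° C, then lysed. Phospho-tyrosine proteins were captured with anti-phosphotyrosine antibody, probed with anti-Bek antibody and peroxidase read-out (A450). Positive control (1000 nM) set 0%, untreated 100%; IC50 from multi-level dilutions.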

Bek, sequence (P21802 431-767 limits assumed): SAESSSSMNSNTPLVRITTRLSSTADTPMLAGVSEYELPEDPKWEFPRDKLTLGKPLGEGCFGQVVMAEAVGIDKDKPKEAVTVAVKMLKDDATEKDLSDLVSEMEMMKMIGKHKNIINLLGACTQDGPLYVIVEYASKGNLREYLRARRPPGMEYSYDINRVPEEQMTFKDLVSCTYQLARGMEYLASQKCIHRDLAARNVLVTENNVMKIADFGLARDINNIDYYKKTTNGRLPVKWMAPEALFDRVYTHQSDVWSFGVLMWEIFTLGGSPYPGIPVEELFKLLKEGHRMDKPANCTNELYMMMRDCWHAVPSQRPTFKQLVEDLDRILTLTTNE

SMILES | IC50 [µM]
COc1cc2ncnc(Oc3ccc(Nc4ccc(C(C)C)cc4)cc3)c2cc1OC [Compound 72, [4-(6,7-Dimethoxyquinazolin-4-yloxy)phenyl]-(4-isopropyl-phenyl)amine] | 0.836
COc1cc2c(Oc3ccc(Nc4ccc(C(C)(C)C)cc4)cc3F)ccnc2cc1OCCCN1CCC(O)CC1 [Compound 273, 1-(3-{4-[4-(4-Tert-butyl-phenylamino)-2-fluoro-phenoxy]-6-methoxy-quinolin-7-yloxy}-propyl)-piperidin-4-ol] | 0.161
COc1cc2c(Oc3ccc(NC(=O)NCCC(C)(C)C)cc3)ccnc2cc1OCCN(CCO)C1CCCCC1 [Compound 362, 1-[4-(7-{2-[Cyclohexyl-(2-hydroxy-ethyl)-amino]-ethoxy}-6-methoxy-quinolin-4-yloxy)-phenyl]-3-(3,3-dimethyl-butyl)-urea] | 0.0492
COc1cc2nccc(Oc3cc(C)c(NC(=O)NCCC(C)(C)C)cc3C)c2cc1OC [Compound 142, 1-[4-(6,7-Dimethoxy-quinolin-4-yloxy)-2,5-dimethyl-phenyl]-3-(3,3-dimethyl-butyl)-urea] | 0.265
COc1cc2nccc(Oc3ccc(NC(=O)NCCC(C)(C)C)c(C)c3)c2cc1OC [Compound 136, 1-[4-(6,7-Dimethoxy-quinolin-4-yloxy)-2-methyl-phenyl]-3-(3,3-dimethyl-butyl)-urea] | 0.0562
COc1cc2nccc(Oc3ccc(NC(=O)NCCC(C)(C)C)cc3)c2cc1OCCCN(C)C [Compound 224, 1-{4-[6-(3-Dimethylamino-propoxy)-7-methoxy-quinolin-4-yloxy]-phenyl}-3-(3,3-dimethyl-butyl)-urea] | 0.0704
COc1cc2c(Oc3ccc(NC(=O)NCCC(C)(C)C)cc3)ccnc2cc1OCCCN1CCC(Cc2ccccc2)CC1 [Compound 247, 1-(4-{7-[3-(4-Benzyl-piperidin-1-yl)-propoxy]-6-methoxy-quinolin-4-yloxy}-phenyl)-3-(3,3-dimethyl-butyl)-urea] | 0.0819
COc1cc2c(Oc3ccc(Nc4ccc(C(C)(C)C)cc4)cc3)ccnc2cc1OCCN1CC(C)OC(C)C1 (stereo not drawn) [Compound 238, (4-Tert-butyl-phenyl)-(4-{7-[2-(2,6-dimethyl-morpholin-4-yl)-ethoxy]-6-methoxy-quinolin-4-yloxy}-phenyl)-amine] | 0.0472
COc1cc2c(Oc3ccc(Nc4ccc(C(C)(C)C)cc4)cc3F)ccnc2cc1OCCN1CCC(CO)CC1 [Compound 283, [1-(2-{4-[4-(4-Tert-butyl-phenylamino)-2-fluoro-phenoxy]-6-methoxy-quinolin-7-yloxy}-ethyl)-piperidin-4-yl]-methanol] | 0.167
COc1cc2c(Oc3ccc(Nc4ccc(C(C)(C)C)cc4)cc3)ccnc2cc1OCCCCl [Compound 23, (4-Tert-butylphenyl)-{4-[7-(3-chloropropoxy)-6-methoxyquinolin-4-yloxy]phenyl}amine] | 0.762
COc1cc2c(Oc3ccc(Nc4ccc(C(C)(C)C)cc4)c(F)c3)ccnc2cc1OCCCN1CCC(CO)CC1 [Compound 290, [1-(3-{4-[4-(4-Tert-butyl-phenylamino)-3-fluoro-phenoxy]-6-methoxy-quinolin-7-yloxy}-propyl)-piperidin-4-yl]-methanol] | 0.233
COc1cc2c(Oc3ccc(Nc4ccc(C(C)(C)C)cc4)cc3)ccnc2cc1OCCN1CCCCC1 [Compound 38, (4-Tert-butylphenyl)-{4-[6-methoxy-7-(2-piperidin-1-ylethoxy)-quinolin-4-yloxy]phenyl}amine] | 0.463
COc1cc2c(Oc3ccc(Nc4ccc(C(C)(C)C)cc4)cc3)ccnc2cc1OCCC(C)N1CCOCC1 (stereo not drawn) [Compound 80, (4-Tert-butylphenyl)-{4-[6-methoxy-7-(3-morpholin-4-ylbutoxy)-quinolin-4-yloxy]phenyl}amine] | 0.151
COc1cc2c(Oc3ccc(Nc4ccc(C(C)(C)C)cc4)cc3F)ccnc2cc1OCCN1CCC(O)CC1 [Compound 284, 1-(2-{4-[4-(4-Tert-butyl-phenylamino)-2-fluoro-phenoxy]-6-methoxy-quinolin-7-yloxy}-ethyl)-piperidin-4-ol] | 0.247
COc1cc2c(Oc3ccc(Nc4ccc(C(C)(C)C)cc4)c(F)c3)ccnc2cc1OCCN1CCC(CO)CC1 [Compound 288, [1-(2-{4-[4-(4-Tert-butyl-phenylamino)-3-fluoro-phenoxy]-6-methoxy-quinolin-7-yloxy}-ethyl)-piperidin-4-yl]-methanol] | 0.11
COc1cc2c(Oc3ccc(Nc4ccc(C(C)(C)C)cc4)cc3)ccnc2cc1OCCNC1(CO)CCCC1 [Compound 350, [1-(2-{4-[4-(4-Tert-butyl-phenylamino)-phenoxy]-6-methoxy-quinolin-7-yloxy}-ethylamino)-cyclopenthyl]-methanol] | 0.334
COc1cc2c(Oc3ccc(NC(=O)NCCC(C)(C)C)cc3)ccnc2cc1OCCN(CCO)Cc1ccccc1 [Compound 368, 1-[4-(7-{2-[Benzyl-(2-hydroxy-ethyl)-amino]-ethoxy}-6-methoxy-quinolin-4-yloxy)-phenyl]-3-(3,3-dimethyl-butyl)-urea] | 0.157
COc1cc2nccc(Oc3ccc(Nc4ccc(OC(F)(F)F)cc4)cc3)c2cc1OC [Compound 6, [4-(6,7-Dimethoxyquinolin-4-yloxy)phenyl]-(4-trifluoromethoxy-phenyl)amine] | 0.875
COc1cc2c(Oc3ccc(Nc4ccc(C(C)(C)C)cc4)cc3)ccnc2cc1OCCCN1CCC(O)CC1 [Compound 216, 1-(3-{4-[4-(4-Tert-butyl-phenylamino)-phenoxy]-6-methoxy-quinolin-7-yloxy}-propyl)-piperidin-4-ol] | 0.174
COc1cc2c(Oc3ccc(NC(=O)NCCC(C)(C)C)cc3F)ccnc2cc1OCCN1CCC(CCO)CC1 [Compound 297, 1-(3,3-Dimethyl-butyl)-3-[3-fluoro-4-(7-{2-[4-(2-hydroxy-ethyl)-piperidin-1-yl]-ethoxy}-6-methoxy-quinolin-4-yloxy)-phenyl]-urea] | 0.0424
COc1cc2nccc(Oc3ccc(Nc4ccc(F)cc4)cc3)c2cc1OC [Compound 4, [4-(6,7-Dimethoxyquinolin-4-yloxy)phenyl]-(4-fluorophenyl)amine] | 3.73

The next compounds have a lower IC50 than those just listed; values first:

IC50 [µM] | SMILES
< 0.01 | COc1cc2c(Oc3ccc(NC(=O)NCCC(C)(C)C)cc3F)ccnc2cc1OCCN1CC(C)OC(C)C1 (stereo not drawn) [Compound 128, 1-(3,3-Dimethyl-butyl)-3-(4-{7-[2-(2,6-dimethyl-morpholin-4-yl)-ethoxy]-6-methoxy-quinolin-4-yloxy}-3-fluoro-phenyl)-urea]
0.0101 | COc1cc2c(Oc3ccc(Nc4ccc(C(C)(C)C)cc4)cc3)ccnc2cc1OCCN1CCC(CO)CC1 [Compound 81, [1-(2-{4-[4-(4-Tert-butylphenylamino)phenoxy]-6-methoxy-quinolin-7-yloxy}ethyl)piperidin-4-yl]methanol]
0.0316 | COCC1CCN(CCCOc2cc3nccc(Oc4ccc(NC(=O)NCCC(C)(C)C)cc4)c3cc2OC)CC1 [Compound 282, 1-(3,3-Dimethyl-butyl)-3-(4-{6-methoxy-7-[3-(4-methoxymethyl-piperidin-1-yl)-propoxy]-quinolin-4-yloxy}-phenyl)-urea]
< 0.01 | COc1cc2c(Oc3ccc(NC(=O)NCCC(C)(C)C)c(Cl)c3)ccnc2cc1OC[C@H](O)CN1CCOCC1 [Compound 201, 1-{2-Chloro-4-[7-(2-hydroxy-3-morpholin-4-yl-propoxy)-6-methoxy-quinolin-4-yloxy]-phenyl}-3-(3,3-dimethyl-butyl)-urea]
0.0227 | COc1cc2c(Oc3ccc(NC(=O)NCCC(C)(C)C)c(F)c3)ccnc2cc1OCCN1CCC(CO)CC1 [Compound 300, 1-(3,3-Dimethyl-butyl)-3-(2-fluoro-4-{7-[2-(4-hydroxymethyl-piperidin-1-yl)-ethoxy]-6-methoxy-quinolin-4-yloxy}-phenyl)-urea]
0.0274 | COc1cc2c(Oc3ccc(NC(=O)NCCC(C)(C)C)c(F)c3)ccnc2cc1OCCN1CCC(O)CC1 [Compound 299, 1-(3,3-Dimethyl-butyl)-3-(2-fluoro-4-{7-[2-(4-hydroxy-piperidin-1-yl)-ethoxy]-6-methoxy-quinolin-4-yloxy}-phenyl)-urea]
0.0133 | COc1cc2c(Oc3ccc(NC(=O)NCCC(C)(C)C)cc3Cl)ccnc2cc1OCCN1CCOCC1 [Compound 126, 1-{3-Chloro-4-[6-methoxy-7-(2-morpholin-4-yl-ethoxy)-quinolin-4-yloxy]-phenyl}-3-(3,3-dimethyl-butyl)-urea]
0.0223 | COc1cc2c(Oc3ccc(NC(=O)NCCC(C)(C)C)c(Cl)c3)ccnc2cc1OCCCN1CCN(C)CC1 [Compound 187, 1-(2-Chloro-4-{6-methoxy-7-[3-(4-methyl-piperazin-1-yl)-propoxy]-quinolin-4-yloxy}-phenyl)-3-(3,3-dimethyl-butyl)-urea]
0.0173 | COc1cc2c(Oc3ccc(NC(=O)NCCC(C)(C)C)c(Cl)c3)ccnc2cc1OCC(O)CN1CCCN(C)CC1 (stereo not drawn) [Compound 196, 1-(2-Chloro-4-{7-[2-hydroxy-3-(4-methyl-[1,4]diazepan-1-yl)-propoxy]-6-methoxy-quinolin-4-yloxy}-phenyl)-3-(3,3-dimethyl-butyl)-urea]
< 0.01 | COc1cc2c(Oc3ccc(NC(=O)NCCC(C)(C)C)cc3)ccnc2cc1OCCCN1CCC(N2CCCC2)CC1 [Compound 249, 1-(3,3-Dimethyl-butyl)-3-(4-{6-methoxy-7-[3-(4-pyrrolidin-1-yl-piperidin-1-yl)-propoxy]-quinolin-4-yloxy}-phenyl)-urea]
0.028 | COc1cc2c(Oc3ccc(NC(=O)NCCC(C)(C)C)cc3)ccnc2cc1OCC(=O)N1CCOCC1 [Compound 375, 1-(3,3-Dimethyl-butyl)-3-{4-[6-methoxy-7-(2-morpholin-4-yl-2-oxo-ethoxy)-quinolin-4-yloxy]-phenyl}-urea]
0.0118 | COc1cc2c(Oc3ccc(NC(=O)NC4CCCC(C)(C)C4)c(F)c3)ccnc2cc1OCCN1CC(C)OC(C)C1 (stereo not drawn) [Compound 134, 1-(3,3-Dimethyl-cyclohexyl)-3-(4-{7-[2-(2,6-dimethyl-morpholin-4-yl)-ethoxy]-6-methoxy-quinolin-4-yloxy}-2-fluoro-phenyl)-urea]
